Measurements published in publication PMC8151276, “An Integrated Approach toward NanoBRET Tracers for Analysis of GPCR Ligand Engagement” (Molecules, 2021).

Tested on: HiBiT-GPCRs
Assay: NanoBRET saturation ligand-engagement assay in HEK293
Type: binding, human
Text: Metabotropic GRM1 glutamate receptor, metabotropic 1 glutamate GRM2 glutamate receptor, metabotropic 2
GRM3 glutamate receptor, metabotropic 3
GRM4 glutamate receptor, metabotropic 4
GRM5 glutamate receptor, metabotropic 5
GRM7 glutamate receptor, metabotropic 7
GRM8 glutamate receptor, metabotropic 8
Glucagon ADCYAP1R1 adenylate cyclase activating polypeptide 1
(pituitary) receptor type I
Lutropin- LHCGR luteinizing hormone/choriogonadotropin choriogonadotropin receptor
Cysteinyl leukotriene CYSLTR1 cysteinyl leukotriene receptor 1
CYSLTR2 cysteinyl leukotriene receptor 2
Cell culture and transfection
HEK293 cells were obtained from American Type Culture Collection (ATCC) and cultured at 37 °C/5% CO2 in Dulbecco's Modified Eagle Medium (DMEM) (Gibco) supplemented with 10% fetal bovine serum (Seradigm) and 100 units/mL of penicillin-streptomycin (Gibco). Transfections were carried out using Viafect (Promega) at a 1:3 DNA/transfection reagent ratio. Generally, DNA encoding HiBiT-GPCR fusion was diluted 1:100 in promoterless carrier DNA. […]
in the presence of 30 μM competing unmodified compound for 90 min at room temperature. […] Filtered luminescence was then measured using GloMax Discover microplate reader (Promega) equipped with a 450-nm (8-nm band pass) filter (donor) and a 600-nm long pass filter (acceptor). BRET was calculated by dividing the acceptor emission by the donor emission. […]

EC50 (range over 17 of the 19 GPCRs, background corrected with competing Clozapine (30 μM), read-out: EC50 values (concentration-dependent tracer binding)): 1 to 600 nM
SMILES: O=C(CCOCCOCCOCCOCCNC(=O)CCc1ccc2n1[B-](F)(F)[N+]1=C(c3ccc[nH]3)C=CC1=C2)NCCCN1CCN(C2=Nc3cc(Cl)ccc3Nc3ccccc32)CC1 [Clozapine-a-2-NB590]
Concentration-dependent binding (ADRA2A and HTR1D, competing Clozapine (30 μM)): specific but suffered from high background
